The results in this text go back to ChEMBL document CHEMBL1134292, “Estrogen receptor-beta potency-selective ligands: structure-activity relationship studies of diarylpropionitriles and their acetylene and polar analogues” (J Med Chem, 2001).

pEC50: −log10 of the molar value.

The target of the assay is Estrogen receptor beta (Homo sapiens, UniProt Q92731).
Sequence of Estrogen receptor beta (Q92731 whole entry): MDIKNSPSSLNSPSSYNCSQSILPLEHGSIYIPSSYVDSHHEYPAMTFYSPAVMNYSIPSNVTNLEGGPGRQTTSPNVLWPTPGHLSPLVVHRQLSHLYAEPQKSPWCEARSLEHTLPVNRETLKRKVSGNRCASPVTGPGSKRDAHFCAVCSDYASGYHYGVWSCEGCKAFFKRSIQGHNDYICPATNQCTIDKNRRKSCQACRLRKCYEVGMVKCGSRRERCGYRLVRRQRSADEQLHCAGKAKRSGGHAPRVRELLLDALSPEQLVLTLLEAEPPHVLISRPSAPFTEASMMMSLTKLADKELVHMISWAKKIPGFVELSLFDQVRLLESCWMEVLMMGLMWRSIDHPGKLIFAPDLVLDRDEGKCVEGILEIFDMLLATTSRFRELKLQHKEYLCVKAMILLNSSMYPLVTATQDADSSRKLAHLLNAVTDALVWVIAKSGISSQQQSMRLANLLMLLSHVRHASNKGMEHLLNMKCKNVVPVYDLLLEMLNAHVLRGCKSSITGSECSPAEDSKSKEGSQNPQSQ
Description: Transcriptional potency (EC50) at Human estrogen receptor Beta
Consider `COC(=O)C(Cc1ccc(O)cc1)c1ccc(O)cc1` (stereo not given), for which the pEC50 is 8.31.

Regarding `N#CC(C#N)(Cc1ccc(O)cc1)c1ccc(O)cc1`, the pEC50 was 7.68. `CC(=O)C(Cc1ccc(O)cc1)c1ccc(O)cc1` (stereo not given) gave a pEC50 of 7.46. Next, `N#C/C(=C\c1ccc(O)cc1)c1ccc(O)cc1`: 6.85; `CC#CC(Cc1ccc(O)cc1)c1ccc(O)cc1` (stereo not given): 8.68; `CC(C#N)(Cc1ccc(O)cc1)c1ccc(O)cc1` (stereo not given): 8.10. Next, `Oc1ccc(CC(c2ccc(O)cc2)C(F)(F)C(F)(F)F)cc1` (stereo not given): 7.82. `C#CC(Cc1ccc(O)cc1)c1ccc(O)cc1` (stereo not given) showed a pEC50 of 8.85. Next, `N#CC(c1ccc(O)cc1)C(C#N)c1ccc(O)cc1` (stereo in doubt; 31a(dl)): 9.39; `Oc1ccc(CC(c2ccc(O)cc2)C(F)(F)F)cc1` (stereo not given): 8.70.

In the case of `C#CC(c1ccc(O)cc1)C(C#C)c1ccc(O)cc1` (racemic), the pEC50 is 8.43. Next, `C[C@H](c1ccc(O)cc1)[C@@H](C#N)c1ccc(O)cc1`: 9.85. Next, `N#CC(c1ccc(O)cc1)C(C#N)c1cccc(O)c1` (stereo not given): 6.96. Next, `N#CC(c1ccc(O)cc1)C(C#N)c1ccc(O)cc1` (stereo in doubt): 9.38. The compound `N#C/C(=C/c1ccc(O)cc1)c1ccc(O)cc1` gave a pEC50 of 6.66. `Cc1cc(O)ccc1CC(C#N)c1ccc(O)cc1` (stereo not given) had a pEC50 of 9.43.

Consider `N#CC[C@H](Cc1ccc(O)cc1)c1ccc(O)cc1`, for which the pEC50 is 7.52. Next, `Cc1cc(O)ccc1C(C#N)Cc1ccc(O)cc1` (stereo not given): 8.77; `CC[C@H](c1ccc(O)cc1)[C@@H](C#N)c1ccc(O)cc1`: 9.82.

In turn, `O=C(C(Cc1ccc(O)cc1)c1ccc(O)cc1)C(F)(F)F` (stereo not given) showed a pEC50 of 6.80.
